In patent US20020006661A1, “Controlling gene expression in living cells” (University of Massachusetts, a Massachusetts corporation, priority 1998, published 2002):

Tests used:
[1] = system: H2-RSETA mRNA (H10 and H19 in tandem in the 5′ UTR); experiment: Wheat germ in vitro translation of H2-RSETA mRNA; format: biochemical; conditions: 0, 40 or 80 μM H33258, wheat germ extract
Protocol: (§1) FIG. 10. is a histogram summarizing SDS-PAGE densitometry data from in vitro translation experiments. RNA transcripts containing 0 (RSETA) or 2 copies of an H33258 aptamer (H2-RSETA) were translated in a wheat germ extract in the presence of ^35S-methionine and 0, 40 or 80 μM H33258. Protein products were subjected to SDS-PAGE and quantitated by densitometry. For each transcript, translation in the absence of drug was set at 100%.
(§2) In vitro transcription reactions contained 5 μg pRSETA (or RSET derivative), 0.5 mM m^7G(5′)G, 0.5 mM ATP, CTP, UTP, 0.05 mM GTP, 10 mM DTT and 40 U T7 RNA polymerase in 50 μl of a solution of 40 mM Tris-HCl pH 7.5, 6 mM MgCl2, 2 mM spermidine, 10 mM NaCl. Following incubation for 1 hour at 37° C., RNA was purified by phenol:chloroform extraction, ethanol precipitation and resuspended in 30 μl H2O. Translation reactions were carried out in 10 μl containing 5 μl wheat germ extract, 0.8 μl 1 mM amino acid mixture (minus methionine), 2 μl of RNA transcript (described above), 0.5 μl [^35S] methionine (1200 Ci/mmole) and 0-80 μM drug. Reactions were incubated at 25{square root} C. for 15 minutes and terminated by addition of 2X sample loading buffer. Translation products were separated by electrophoresis on an 18% polyacrylamide gel, visualized by autoradiography, and quantitated by densitometry.

[2] = cited from earlier work; for Cell permeability: known
[3] = known; cited from earlier work
[4] = system: SVH2β Gal (β-galactosidase reporter with H10 and H19 in the 5′ UTR) in CHO cells; experiment: β-galactosidase reporter expression in transfected CHO cells, SVH2β gal; format: cell-based; conditions: 24 hours, 0, 5 or 10 μM H33342, dose-dependent
Protocol: (§3) FIG. 11 is a histogram summarizing data from in vivo expression experiments. H33258 aptamers H10 and H19 were cloned in tandem into the 5′ UTR of a β-galactosidase reporter gene (SVβ gal; Promega) to generate SVH2β gal. CHO cells were cotransfected with 1 μg SVβ gal or SVH2β gal and 1 μg of a luciferase expression vector (pGL3). Transfected cells were grown in the presence of […]. Twenty-four hours after transfection, cell extracts were prepared, and β-galactosidase and luciferase activities were determined.
(§4) To test whether this small molecule-aptamer interaction could be used to control gene expression in vivo, one copy of H10 and H19 were inserted into the 5′ UTR of a mammalian β-galactosidase expression plasmid SVβ Gal (Promega), generating the construct SVH2β gal. CHO cells were cotransfected with SVH2β Gal or as a control the parental vector, SVβ Gal, and a luciferase reporter gene to provide an internal control. Following transfection, cells were grown for 24 hours in the presence of 0, 5 or 10 μM H33342 and analyzed for β-galactosidase and luciferase activities.
(§5) H33258 aptamers, H10 and H19, were cloned in tandem into the 5′ UTR of a β-galactosidase reporter gene (SVβ gal, Promega) to generate SVH2β gal. […] 24 hours post-transfection cell extracts were prepared and β-galactosidase and luciferase activities were determined.

[5] = system: parental expression vector SVβ Gal in CHO cells; experiment: β-galactosidase reporter expression in transfected CHO cells, parental SVβ Gal; format: cell-based; conditions: 24 hours, 0, 5 or 10 μM H33342, data not shown
Protocol: as §3, §4, §5

[6] = system: luciferase reporter (pGL3) in CHO cells; experiment: Luciferase internal control reporter in transfected CHO cells; format: cell-based; conditions: 24 hours, 0, 5 or 10 μM H33342
Protocol: as §3, §4, §5

[7] = system: E. coli BL-21 cells expressing RSETA, kan or tob aptamers; experiment: Growth of E. coli expressing antibiotic aptamers in antibiotic-containing medium; format: cell-based; conditions: 10 mM antibiotic, liquid culture; for Growth of bl-kan1 (kanamycin aptamer) in the presence of antibiotic: strain bl-kan1; for Growth of bl-tob1 (tobramycin aptamer) in the presence of antibiotic: strain bl-tob1
Protocol: FIGS. 3A-3E are growth curves of E. coli expressing antibiotic aptamers. Overnight cultures of BL-21 cells transformed with plasmids expressing RSETA, tob1, tob3, kan1 or kan3 were diluted 100-fold into medium containing the indicated concentration of aminoglycoside antibiotic. Optical density (660 nm) was measured at fixed intervals over 8 hours of growth at 37° C.
As an initial test for the ability of these aptamers to function in vivo, we asked whether following expression in E. coli the aptamer would sequester the cognate antibiotic thereby conferring a specific drug-resistant phenotype. Toward this end, one or three copies of the kanamycin A (kan) or the tobramycin (tob) aptamer were cloned into the T7 RNA polymerase-driven expression vector PRSETA (Invitrogen), and transformed into a bacterial strain containing an IPTG-inducible T7 RNA polymerase. Bacterial strains were grown in liquid culture overnight and then diluted into antibiotic-containing medium. In the absence of drug, bacterial strains expressing no aptamer (bl-RSETA), the kanamycin aptamer (bl-kan1), or the tobramycin aptamer (bl-tob1) grew similarly (FIG. 3A). […] The partial-resistance of bl-kan1 to tobramycin (our unpublished data).

[8] = system: tob3-RSETA mRNA (three copies of the tob aptamer in the 5′ UTR); experiment: Wheat germ in vitro translation of tob3-RSETA mRNA; format: biochemical; conditions: 0, 30 or 60 μM drug, wheat germ extract
Protocol: (§6) FIG. 4. is a histogram showing percent translation of mRNA in a wheat germ in vitro translation system containing 0 (RSETA) or 3 copies of the tob aptamer cloned into the 5′ UTR of RSETA (tob3-RSETA) and 0, 30 or 60 μM tobramycin or kanamycin A. Protein products were analyzed by SDS-PAGE and quantitated by densitometry. For each transcript, translation in the absence of drug was set at 100%.
A test mRNA was constructed containing three copies of the tob aptamer inserted in the 5′ UTR of RSETA (tob3-RSETA). In vitro translation reactions were performed in the presence of 0, 30 or 60 μM tobramycin or kanamycin A.
as §2, with “Reactions were incubated at 25{square root} C. for 15 minutes and terminated by addition of 2X sample loading buffer.” left out

control RSETA mRNA = experiment: Wheat germ in vitro translation of control RSETA mRNA; format: biochemical; conditions: all concentrations tested, wheat germ extract
Protocol: as §6, §1
A test mRNA was constructed containing three copies of the tob aptamer inserted in the 5′ UTR of RSETA (tob3-RSETA). […]
In vitro transcription reactions contained 5 μg pRSETA (or RSET derivative), 0.5 mM m^7G(5′)G, 0.5 mM ATP, CTP, UTP, 0.05 mM GTP, 10 mM DTT and 40 U T7 RNA polymerase in 50 μl of a solution of 40 mM Tris-HCl pH 7.5, 6 mM MgCl2, 2 mM spermidine, 10 mM NaCl. […] Translation products were separated by electrophoresis on an 18% polyacrylamide gel, visualized by autoradiography, and quantitated by densitometry.

| Structure (SMILES) | In vitro translation of H2-RSETA mRNA [1] | Cell permeability [2] | Toxicity [3] | Reduction of β-galactosidase activity from SVH2β Gal [4] | Expression of parental expression vector SVβ Gal [5] | Expression of the luciferase reporter [6] | Cell permeability relative to H33258 [2] | Growth of bl-RSETA (no aptamer) in the presence of antibiotic ([7]; strain bl-RSETA) | Growth of bl-kan1 (kanamycin aptamer) in the presence of antibiotic [7] | Growth of bl-tob1 (tobramycin aptamer) in the presence of antibiotic [7] | In vitro translation of tob3-RSETA mRNA [8] | In vitro translation of control RSETA mRNA (control RSETA mRNA) |
| --- | --- | --- | --- | --- | --- | --- | --- | --- | --- | --- | --- | --- |
| CN1CCN(c2ccc3[nH]c(-c4ccc5[nH]c(-c6ccc(O)cc6)nc5c4)nc3c2)CC1 [H33258] | inhibited in vitro translation of H2-RSETA | cell-permeable | relatively non-toxic |  |  |  |  |  |  |  |  |  |
| CCOc1ccc(-c2nc3ccc(-c4nc5ccc(N6CCN(C)CC6)cc5[nH]4)cc3[nH]2)cc1 [H33342] |  | cell-permeable | relatively non-toxic | greater than 90% | not inhibited | not inhibited | approximately ten-fold more cell-permeable |  |  |  |  |  |
| NC[C@H]1O[C@H](O[C@H]2[C@H](O)[C@@H](O[C@H]3O[C@H](CO)[C@@H](O)[C@H](N)[C@H]3O)[C@H](N)C[C@@H]2N)[C@H](O)[C@@H](O)[C@@H]1O [kanamycin A] |  |  |  |  |  |  |  | neglible | grew to saturation | neglible | not inhibited | unaffected |
| NC[C@H]1O[C@H](O[C@H]2[C@H](O)[C@@H](O[C@H]3O[C@H](CO)[C@@H](O)[C@H](N)[C@H]3O)[C@H](N)C[C@@H]2N)[C@H](N)C[C@@H]1O [tobramycin] |  |  |  |  |  |  |  |  | grew to a sub-saturating level | grew to saturation | inhibited in vitro translation of the tob3-RSETA mRNA in a dose-dependent fashion | unaffected |
